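Assay format: 96-well plates, 48-hour exposure. Abbreviation: GI50, concentration required for 50% inhibition of growth.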 Activity calls are given as the source filed them. Rule as the data show it: active = GI50 up to about 1.1 µM and inactive = higher.
Experiments:
Assay in all cases: NCI anticancer screen, dose series, 48 h
[1] = test system: NCI-H226
[2] = test system: DMS-273
[3] = test system: DLD-1
[4] = test system: RXF 393
[5] = test system: MOLT-4
[6] = test system: OVCAR-4
[7] = test system: RPMI-8226
[8] = test system: SNB-19
[9] = test system: SK-MEL-2
[10] = test system: LXFL 529
[11] = test system: OVCAR-3
[12] = test system: SK-OV-3
[13] = test system: M14
[14] = test system: HOP-62
[15] = test system: SF-539
[16] = test system: UO-31
[17] = test system: HL-60
[18] = test system: KM12
[19] = test system: SNB-75
[20] = test system: SF-268
[21] = test system: EKVX
[22] = test system: SK-MEL-28
[23] = test system: SK-MEL-5
[24] = test system: HOP-18
[25] = test system: RXF 631
[26] = test system: NCI-H460
[27] = test system: HCC 2998
[28] = test system: NCI-H522
[29] = test system: OVCAR-8
[30] = test system: UACC-257
[31] = test system: HCT-116
[32] = test system: CCRF-CEM
[33] = test system: ACHN
[34] = test system: HCT-15
[35] = test system: UACC-62
[36] = test system: CAKI-1
[37] = test system: SR
[38] = test system: DMS-114
[39] = test system: A498
[40] = test system: SW-620
[41] = test system: SN12C
[42] = test system: IGROV-1
[43] = test system: COLO 205
[44] = test system: SNB-78
[45] = test system: A549
[46] = test system: Malme-3M
[47] = test system: 786-0
[48] = test system: U-251
[49] = test system: TK-10
[50] = test system: K562
[51] = test system: KM-20L2
[52] = test system: SF-295
[53] = test system: LOX IMVI
[54] = test system: M19-MEL
[55] = test system: HT-29
[56] = test system: HOP-92
[57] = test system: OVCAR-5
[58] = test system: NCI-H23

Cc1ccc(Nc2ccc(Nc3ccc(C)cc3S(=O)(=O)O)c3c2C(=O)c2ccccc2C3=O)c(S(=O)(=O)O)c1
GI50 [1]: > 100 µM (inactive) | GI50 [2]: > 100 µM (inactive) | GI50 [3]: > 100 µM (inactive) | GI50 [4]: > 100 µM (inactive) | GI50 [5]: > 100 µM (inactive) | GI50 [6]: > 100 µM (inactive) | GI50 [7]: > 100 µM (inactive) | GI50 [8]: > 100 µM (inactive) | GI50 [9]: > 100 µM (inactive) | GI50 [10]: > 100 µM (inactive) | GI50 [11]: > 100 µM (inactive) | GI50 [12]: > 100 µM (inactive) | GI50 [13]: > 100 µM (inactive) | GI50 [14]: > 100 µM (inactive) | GI50 [15]: > 100 µM (inactive) | GI50 [16]: > 100 µM (inactive) | GI50 [17]: > 100 µM (inactive) | GI50 [18]: > 100 µM (inactive) | GI50 [19]: 94.6 µM (inactive) | GI50 [20]: > 100 µM (inactive) | GI50 [21]: > 100 µM (inactive) | GI50 [22]: > 100 µM (inactive) | GI50 [23]: > 100 µM (inactive) | GI50 [24]: > 100 µM (inactive) | GI50 [25]: > 100 µM (inactive) | GI50 [26]: > 100 µM (inactive) | GI50 [27]: > 100 µM (inactive) | GI50 [28]: > 100 µM (inactive) | GI50 [29]: > 100 µM (inactive) | GI50 [30]: > 100 µM (inactive) | GI50 [31]: > 100 µM (inactive) | GI50 [32]: > 100 µM (inactive) | GI50 [33]: > 100 µM (inactive) | GI50 [34]: > 100 µM | GI50 [35]: > 100 µM (inactive) | GI50 [36]: > 100 µM (inactive) | GI50 [37]: > 100 µM (inactive) | GI50 [38]: > 100 µM (inactive) | GI50 [39]: > 100 µM (inactive) | GI50 [40]: > 100 µM (inactive) | GI50 [41]: > 100 µM (inactive) | GI50 [42]: > 100 µM (inactive) | GI50 [43]: > 100 µM (inactive) | GI50 [44]: > 100 µM (inactive) | GI50 [45]: > 100 µM (inactive) | GI50 [46]: > 100 µM (inactive) | GI50 [47]: > 100 µM (inactive) | GI50 [48]: > 100 µM (inactive) | GI50 [49]: > 100 µM (inactive) | GI50 [50]: > 100 µM (inactive) | GI50 [51]: > 100 µM (inactive)

CC1(C)CC(=O)c2c(oc3cc(O)c(O)cc23)C1
GI50 [2]: 28.6 µM (inactive) | GI50 [3]: 22.9 µM (inactive) | GI50 [4]: 29.4 µM (inactive) | GI50 [5]: 21.3 µM (inactive) | GI50 [6]: 19.5 µM (inactive) | GI50 [7]: 17.5 µM (inactive) | GI50 [8]: 82.2 µM (inactive) | GI50 [9]: 26.7 µM (inactive) | GI50 [10]: 24.7 µM (inactive) | GI50 [12]: > 100 µM (inactive) | GI50 [13]: 24.2 µM (inactive) | GI50 [14]: 41.4 µM (inactive) | GI50 [15]: 28.6 µM (inactive) | GI50 [16]: 37.7 µM (inactive) | GI50 [17]: 16 µM (inactive) | GI50 [52]: 43.3 µM (inactive) | GI50 [18]: 23.9 µM (inactive) | GI50 [19]: 32.8 µM (inactive) | GI50 [20]: 24.3 µM (inactive) | GI50 [23]: 17.7 µM (inactive) | GI50 [24]: 40.1 µM (inactive) | GI50 [25]: 26.3 µM (inactive) | GI50 [26]: 32 µM (inactive) | GI50 [27]: 59.4 µM (inactive) | GI50 [28]: 11.5 µM (inactive) | GI50 [29]: 19.2 µM (inactive) | GI50 [30]: 30.5 µM (inactive) | GI50 [53]: 17.1 µM (inactive) | GI50 [31]: > 10 µM (inactive) | GI50 [32]: 9.84 µM (inactive) | GI50 [33]: 31.3 µM (inactive) | GI50 [34]: 25.4 µM | GI50 [35]: 17.3 µM (inactive) | GI50 [36]: 25.8 µM (inactive) | GI50 [37]: 18.8 µM (inactive) | GI50 [38]: 13.2 µM (inactive) | GI50 [39]: 39 µM (inactive) | GI50 [40]: 19.1 µM (inactive) | GI50 [41]: 39.5 µM (inactive) | GI50 [54]: 35.3 µM (inactive) | GI50 [42]: 40.2 µM (inactive) | GI50 [43]: 36.6 µM (inactive) | GI50 [44]: 46.9 µM (inactive) | GI50 [45]: 38 µM (inactive) | GI50 [46]: 32.7 µM (inactive) | GI50 [55]: 53 µM (inactive) | GI50 [56]: 36.3 µM (inactive) | GI50 [47]: 26.3 µM (inactive) | GI50 [48]: 33 µM (inactive) | GI50 [49]: > 100 µM (inactive) | GI50 [50]: 24.7 µM (inactive) | GI50 [57]: 15.5 µM (inactive) | GI50 [51]: 33.7 µM (inactive)

CCOC(=O)C1(Cc2ccccc2)CCCCCN1 (configuration not stated)
GI50 [2]: > 100 µM (inactive) | GI50 [3]: > 100 µM (inactive) | GI50 [4]: > 100 µM (inactive) | GI50 [6]: > 100 µM (inactive) | GI50 [10]: > 100 µM (inactive) | GI50 [11]: > 100 µM (inactive) | GI50 [12]: > 100 µM (inactive) | GI50 [13]: > 100 µM (inactive) | GI50 [14]: > 100 µM (inactive) | GI50 [16]: > 100 µM (inactive) | GI50 [17]: > 100 µM (inactive) | GI50 [52]: > 100 µM (inactive) | GI50 [19]: 32.8 µM (inactive) | GI50 [20]: > 100 µM (inactive) | GI50 [21]: > 100 µM (inactive) | GI50 [22]: > 100 µM (inactive) | GI50 [24]: > 100 µM (inactive) | GI50 [25]: > 100 µM (inactive) | GI50 [26]: > 100 µM (inactive) | GI50 [27]: > 100 µM (inactive) | GI50 [29]: > 100 µM (inactive) | GI50 [53]: > 100 µM (inactive) | GI50 [33]: > 100 µM (inactive) | GI50 [34]: > 100 µM | GI50 [35]: > 100 µM (inactive) | GI50 [36]: > 100 µM (inactive) | GI50 [58]: > 100 µM (inactive) | GI50 [38]: > 100 µM (inactive) | GI50 [40]: > 100 µM (inactive) | GI50 [41]: > 100 µM (inactive) | GI50 [54]: > 100 µM (inactive) | GI50 [42]: > 100 µM (inactive) | GI50 [43]: > 100 µM (inactive) | GI50 [44]: > 100 µM (inactive) | GI50 [45]: > 100 µM (inactive) | GI50 [46]: 50.1 µM (inactive) | GI50 [55]: > 100 µM (inactive) | GI50 [56]: > 100 µM (inactive) | GI50 [47]: > 100 µM (inactive) | GI50 [48]: > 100 µM (inactive) | GI50 [49]: > 100 µM (inactive) | GI50 [50]: > 100 µM (inactive) | GI50 [51]: > 100 µM (inactive)

From ChEMBL document CHEMBL1201862, “PubChem BioAssay data set” (2004)
